Experiments:
Test in all cases: relative viability (nuclei count vs DMSO), 5 days (fraction); higher = more cells survive
Vemurafenib + OSI-027 = compound: CCCS(=O)(=O)Nc1ccc(F)c(C(=O)c2c[nH]c3ncc(-c4ccc(Cl)cc4)cc23)c1F [Vemurafenib] + COc1cccc2cc(-c3nc([C@H]4CC[C@H](C(=O)O)CC4)n4ncnc(N)c34)[nH]c12 [OSI-027] (partner 0.5 µM)
Outline: (§1)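 Relative viability equals treated-well nuclei counts divided by vehicle-well nuclei counts. Counts came from 4× images of lung cancer cell lines grown in 1536-well plates for 5 days after pin-tool dosing on the day after seeding. Dosing used one drug alone or a fixed anchor-drug dose plus five library-drug doses (not always all listed) in √10 steps, and values are medians of duplicate plates.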

Alpelisib + Pemetrexed = compound: Cc1nc(NC(=O)N2CCC[C@H]2C(N)=O)sc1-c1ccnc(C(C)(C)C(F)(F)F)c1 [Alpelisib] + Nc1nc2[nH]cc(CCc3ccc(C(=O)N[C@@H](CCC(=O)O)C(=O)O)cc3)c2c(=O)[nH]1 [Pemetrexed] (partner 0.2 µM)
Outline: as §1

Alpelisib + Decitabine = compound: Cc1nc(NC(=O)N2CCC[C@H]2C(N)=O)sc1-c1ccnc(C(C)(C)C(F)(F)F)c1 [Alpelisib] + Nc1ncn([C@H]2C[C@H](O)[C@@H](CO)O2)c(=O)n1 [Decitabine] (partner 2 µM)
Outline: as §1

OSI-027 + Bortezomib = compound: COc1cccc2cc(-c3nc([C@H]4CC[C@H](C(=O)O)CC4)n4ncnc(N)c34)[nH]c12 [OSI-027] + CC(C)C[C@H](NC(=O)[C@H](Cc1ccccc1)NC(=O)c1cnccn1)B(O)O [Bortezomib] (partner 0.002 µM)
Outline: as §1

UMC-11
relative viability (Vemurafenib + OSI-027; first compound 0.03162 µM): 0.541
relative viability (Vemurafenib + OSI-027; first compound 0.1 µM): 0.519
relative viability (Vemurafenib + OSI-027; first compound 0.3162 µM): 0.411
relative viability (Vemurafenib + OSI-027; first compound 1 µM): 0.44
relative viability (Alpelisib + Pemetrexed; first compound 0.04 µM): 0.732
relative viability (Alpelisib + Pemetrexed; first compound 0.1265 µM): 0.709
relative viability (Alpelisib + Pemetrexed; first compound 0.4 µM): 0.844
relative viability (Alpelisib + Pemetrexed; first compound 1.265 µM): 0.699
relative viability (Alpelisib + Pemetrexed; first compound 4 µM): 0.692
relative viability (Alpelisib + Decitabine; first compound 0.04 µM): 0.513
relative viability (Alpelisib + Decitabine; first compound 0.1265 µM): 0.636
relative viability (Alpelisib + Decitabine; first compound 0.4 µM): 0.693
relative viability (Alpelisib + Decitabine; first compound 1.265 µM): 0.535
relative viability (Alpelisib + Decitabine; first compound 4 µM): 0.745
relative viability (OSI-027 + Bortezomib; first compound 0.01 µM): 0.565
relative viability (OSI-027 + Bortezomib; first compound 0.03162 µM): 0.646
relative viability (OSI-027 + Bortezomib; first compound 0.1 µM): 0.696
relative viability (OSI-027 + Bortezomib; first compound 0.3162 µM): 0.668
relative viability (OSI-027 + Bortezomib; first compound 1 µM): 0.503
